Assay results taken from US4371521A, “Pharmaceutical composition for retarding excessive platelet aggregation” (priority 1973, dated 1983).
Read-outs that look alike come from different tables or passages of the source.

What was measured:
creatine-phosphokinase = details: various buffers and pHs, cited from earlier work
[1] = Acute toxicity (LD50) in male albino mice; type: in vivo; details: mouse, in vivo, Tainter and Miller, ± standard deviation
[2] = Pharmacological results of the single components; details: in the absence of the other component
male albino mice = assay: Acute toxicity (LD50) in male albino mice; type: in vivo; details: Tainter and Miller, ± standard deviation

Molecule | Rmax (creatine-phosphokinase) | Km (creatine-phosphokinase; read-out: Michaelis constant for ADP) | LD50 [1] | pharmacological results of the component alone [2] | Km (creatine-phosphokinase; read-out: Michaelis constant for creatine-phosphate) | LD50 (male albino mice)
Nc1ncnc2c1ncn2[C@@H]1O[C@H](COP(=O)(O)OP(=O)(O)O)[C@@H](O)[C@H]1O [ADP, adenosine-diphosphate, reference compound] | 1.7 μmols/minute/μg of protein | 0.8 to 1 mM |  |  |  | 
CN(CC(=O)O)C(=N)NP(=O)(O)O [CP, creatine-phosphate] | 1.1 μmols/minute/μg of protein |  | 3500 ± 120 mg/kg | Neither the substrate (CP) alone (i.e. in the absence of the administration of the enzyme which brings about its conversion) nor the enzyme (CPK) alone gives the pharmacological results | 5 mM | 
CPK: enzyme found in striated and cardiac muscle and cerebral tissue; protein molecule of molecular weight 8.1×10^4; crystalline form from rabbit skeletal muscle |  |  |  | Neither the substrate (CP) alone (i.e. in the absence of the administration of the enzyme which brings about its conversion) nor the enzyme (CPK) alone gives the pharmacological results |  | > 0.1 g/kg
